Source: the supplement of paper PMC10307832

Legend:
Experiment in all cases: relative viability (nuclei count vs DMSO), 5 days (fraction); higher = more cells survive
[1] = system: COR-L 105
Summary of the method: (§1)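 Relative viability divides the nuclei count in treated wells by that in vehicle wells. Lung cancer cell lines were seeded in 1536-well plates, dosed by pin tool the next day, and fixed and stained after 5 days in one step with final 0.05% Triton X-100, 1% formaldehyde and 1 ug/ml Hoechst. Dosing was a single drug or a fixed anchor-drug dose plus five library-drug doses (not always all listed) in √10 steps, and values are medians of duplicate plates imaged at 4×.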

[2] = system: COR-L23
Summary of the method: as §1

[3] = system: HARA
Summary of the method: as §1

[4] = system: HCC-15
Summary of the method: as §1

[5] = system: HOP-62
Summary of the method: as §1

[6] = system: NCI-H1355
Summary of the method: as §1

[7] = system: NCI-H1395
Summary of the method: as §1

[8] = system: NCI-H1734
Summary of the method: as §1

[9] = system: NCI-H1755
Summary of the method: as §1

[10] = system: NCI-H1792
Summary of the method: as §1

[11] = system: NCI-H1793
Summary of the method: as §1

[12] = system: NCI-H1993
Summary of the method: as §1

[13] = system: NCI-H2009
Summary of the method: as §1

[14] = system: NCI-H2170
Summary of the method: as §1

[15] = system: NCI-H2228
Summary of the method: as §1

[16] = system: NCI-H2347
Summary of the method: as §1

[17] = system: NCI-H647
Summary of the method: as §1

[18] = system: NCI-H838
Summary of the method: as §1

[19] = system: SK-MES-1
Summary of the method: as §1

[20] = system: UMC-11
Summary of the method: as §1

Nc1ccn([C@@H]2O[C@H](CO)[C@@H](O)[C@@H]2O)c(=O)n1 [Cytarabine] + CC1(C)CCC(c2ccc(Cl)cc2)=C(CN2CCN(c3ccc(C(=O)NS(=O)(=O)c4ccc(N[C@H](CCN5CCOCC5)CSc5ccccc5)c(S(=O)(=O)C(F)(F)F)c4)cc3)CC2)C1 [Navitoclax] (partner 0.5 µM)
relative viability ([1]; first compound 0.005 µM): 0.699 | relative viability ([1]; first compound 0.01581 µM): 0.795 | relative viability ([1]; first compound 0.05 µM): 0.588 | relative viability ([1]; first compound 0.1581 µM): 0.435 | relative viability ([1]; first compound 0.5 µM): 0.34 | relative viability ([2]; first compound 0.005 µM): 0.944 | relative viability ([2]; first compound 0.01581 µM): 0.842 | relative viability ([2]; first compound 0.05 µM): 0.555 | relative viability ([2]; first compound 0.1581 µM): 0.168 | relative viability ([2]; first compound 0.5 µM): 0.129 | relative viability ([3]; first compound 0.005 µM): 1.09 | relative viability ([3]; first compound 0.01581 µM): 0.593 | relative viability ([3]; first compound 0.05 µM): 0.302 | relative viability ([3]; first compound 0.1581 µM): 0.178 | relative viability ([3]; first compound 0.5 µM): 0.131 | relative viability ([4]; first compound 0.005 µM): 0.669 | relative viability ([4]; first compound 0.01581 µM): 0.733 | relative viability ([4]; first compound 0.05 µM): 0.609 | relative viability ([4]; first compound 0.1581 µM): 0.562 | relative viability ([4]; first compound 0.5 µM): 0.43 | relative viability ([5]; first compound 0.005 µM): 0.946 | relative viability ([5]; first compound 0.01581 µM): 0.405 | relative viability ([5]; first compound 0.05 µM): 0.342 | relative viability ([5]; first compound 0.1581 µM): 0.104 | relative viability ([5]; first compound 0.5 µM): 0.0809 | relative viability ([6]; first compound 0.005 µM): 0.897 | relative viability ([6]; first compound 0.01581 µM): 0.811 | relative viability ([6]; first compound 0.05 µM): 0.819 | relative viability ([6]; first compound 0.1581 µM): 0.325 | relative viability ([6]; first compound 0.5 µM): 0.203 | relative viability ([7]; first compound 0.005 µM): 1.2 | relative viability ([7]; first compound 0.01581 µM): 0.849 | relative viability ([7]; first compound 0.05 µM): 0.65 | relative viability ([7]; first compound 0.1581 µM): 0.48 | relative viability ([7]; first compound 0.5 µM): 0.368 | relative viability ([8]; first compound 0.005 µM): 0.418 | relative viability ([8]; first compound 0.01581 µM): 0.322 | relative viability ([8]; first compound 0.05 µM): 0.197 | relative viability ([8]; first compound 0.1581 µM): 0.142 | relative viability ([8]; first compound 0.5 µM): 0.126 | relative viability ([9]; first compound 0.005 µM): 0.914 | relative viability ([9]; first compound 0.01581 µM): 0.821 | relative viability ([9]; first compound 0.05 µM): 0.583 | relative viability ([9]; first compound 0.1581 µM): 0.201 | relative viability ([9]; first compound 0.5 µM): 0.194 | relative viability ([10]; first compound 0.005 µM): 0.339 | relative viability ([10]; first compound 0.01581 µM): 0.55 | relative viability ([10]; first compound 0.05 µM): 0.223 | relative viability ([10]; first compound 0.1581 µM): 0.304 | relative viability ([10]; first compound 0.5 µM): 0.246 | relative viability ([11]; first compound 0.005 µM): 0.273 | relative viability ([11]; first compound 0.01581 µM): 0.333 | relative viability ([11]; first compound 0.05 µM): 0.271 | relative viability ([11]; first compound 0.1581 µM): 0.261 | relative viability ([11]; first compound 0.5 µM): 0.244 | relative viability ([12]; first compound 0.005 µM): 0.92 | relative viability ([12]; first compound 0.01581 µM): 0.949 | relative viability ([12]; first compound 0.05 µM): 0.721 | relative viability ([12]; first compound 0.1581 µM): 0.548 | relative viability ([12]; first compound 0.5 µM): 0.624 | relative viability ([13]; first compound 0.005 µM): 1.13 | relative viability ([13]; first compound 0.01581 µM): 1.21 | relative viability ([13]; first compound 0.05 µM): 0.99 | relative viability ([13]; first compound 0.1581 µM): 0.898 | relative viability ([13]; first compound 0.5 µM): 0.31 | relative viability ([14]; first compound 0.01581 µM): 0.448 | relative viability ([14]; first compound 0.05 µM): 0.361 | relative viability ([14]; first compound 0.1581 µM): 0.28 | relative viability ([14]; first compound 0.5 µM): 0.263 | relative viability ([15]; first compound 0.005 µM): 0.504 | relative viability ([15]; first compound 0.01581 µM): 0.544 | relative viability ([15]; first compound 0.05 µM): 0.0741 | relative viability ([15]; first compound 0.1581 µM): 0.0929 | relative viability ([15]; first compound 0.5 µM): 0.0928 | relative viability ([16]; first compound 0.005 µM): 0.911 | relative viability ([16]; first compound 0.01581 µM): 0.786 | relative viability ([16]; first compound 0.05 µM): 0.635 | relative viability ([16]; first compound 0.1581 µM): 0.531 | relative viability ([16]; first compound 0.5 µM): 0.449 | relative viability ([17]; first compound 0.005 µM): 0.73 | relative viability ([17]; first compound 0.01581 µM): 0.517 | relative viability ([17]; first compound 0.05 µM): 0.148 | relative viability ([17]; first compound 0.1581 µM): 0.092 | relative viability ([17]; first compound 0.5 µM): 0.0675 | relative viability ([18]; first compound 0.005 µM): 1.29 | relative viability ([18]; first compound 0.01581 µM): 1.18 | relative viability ([18]; first compound 0.05 µM): 0.816 | relative viability ([18]; first compound 0.1581 µM): 0.446 | relative viability ([18]; first compound 0.5 µM): 0.262 | relative viability ([19]; first compound 0.005 µM): 0.957 | relative viability ([19]; first compound 0.01581 µM): 0.869 | relative viability ([19]; first compound 0.05 µM): 0.408 | relative viability ([19]; first compound 0.1581 µM): 0.22 | relative viability ([19]; first compound 0.5 µM): 0.178 | relative viability ([20]; first compound 0.005 µM): 0.268 | relative viability ([20]; first compound 0.01581 µM): 0.197 | relative viability ([20]; first compound 0.05 µM): 0.2 | relative viability ([20]; first compound 0.1581 µM): 0.141 | relative viability ([20]; first compound 0.5 µM): 0.125
